Experimental data reported in publication PMC12892976, “Alkylation-based optimization of antifungal FPPS inhibitors yields a potent, broad-spectrum lipophilic zoledronate derivative” (mBio, 2025).

Key:
[1] = test system: Trichophyton soudanense; assay: checkerboard drug interaction (FICI, MICc); assay type: cell-based;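 also: simplified diagonal checkerboard screen pairing antifungals with FPPS inhibitors, FICI computed under the Loewe additivity model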
Procedure: (§1) Drug interactions between antifungals and FPPS inhibitors were investigated using a simplified checkerboard diagonal screening method ([45]). […] FICIs were determined according to the Loewe additivity model ([17]).

[2] = test system: Aspergillus frankstonensis; assay: checkerboard drug interaction (FICI, MICc);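 also: simplified diagonal checkerboard screen pairing antifungals with FPPS inhibitors, FICI calculated using the Loewe additivity model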
Procedure: as §1

[3] = test system: Mucor circinelloides; assay: checkerboard drug interaction (FICI, MICc); assay type: cell-based;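 also: simplified diagonal checkerboard screen pairing antifungals with FPPS inhibitors, FICI calculated under the Loewe additivity model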
Procedure: as §1

[4] = test system: Trichophyton interdigitale; assay: checkerboard drug interaction (FICI, MICc);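 also: simplified diagonal checkerboard screen pairing antifungals with FPPS inhibitors, FICI values calculated under the Loewe additivity model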
Procedure: as §1

[5] = test system: Scedosporium apiospermum; assay: MIC broth microdilution (CLSI); assay type: cell-based; conditions: Scedosporium apiospermum 04-16-022-2268
Procedure: (§2) Antifungal susceptibility was determined by broth microdilution according to the CLSI guidelines described in M27-Ed4 ([16]).

[6] = test system: Candida auris; assay: checkerboard drug interaction (FICI, MICc); assay type: cell-based;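 also: simplified diagonal checkerboard screen pairing antifungals with FPPS inhibitors, with FICI computed under the Loewe additivity model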
Procedure: as §1

[7] = test system: Aspergillus felis; assay: checkerboard drug interaction (FICI, MICc); assay type: cell-based;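 also: simplified diagonal checkerboard screen pairing antifungals with FPPS inhibitors, FICI calculated under the Loewe additivity model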
Procedure: as §1

[8] = test system: Candida parapsilosis; assay: MIC broth microdilution (CLSI); assay type: cell-based; conditions: Candida parapsilosis ATCC 22018
Procedure: Antifungal susceptibility was determined by broth microdilution according to the CLSI guidelines described in M27-Ed4 ([16]). […] MFC was determined by back-plating drug-treated cultures from MIC broths onto SDA plates. The MFC was defined as the lowest concentration from which no colonies could be cultured.

[9] = test system: Cryptococcus deneoformans; assay: checkerboard drug interaction (FICI, MICc); assay type: cell-based;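 also: simplified diagonal checkerboard screen pairing antifungals with FPPS inhibitors, FICI calculated under the Loewe additivity model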
Procedure: as §1

[10] = test system: Epidermophyton floccosum; assay: MIC broth microdilution (CLSI); assay type: cell-based; conditions: Epidermophyon floccosum R-113
Procedure: as §2

[11] = test system: Aspergillus udagawae; assay: checkerboard drug interaction (FICI, MICc); assay type: cell-based;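 also: simplified diagonal checkerboard screen pairing antifungals with FPPS inhibitors, FICI calculated using the Loewe additivity model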
Procedure: as §1

[12] = test system: Microsporum canis; assay: checkerboard drug interaction (FICI, MICc); assay type: cell-based;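 also: simplified diagonal checkerboard screen pairing antifungals with FPPS inhibitors, FICI calculated under the Loewe additivity model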
Procedure: as §1

CCCCCCCCCCn1cc[n+](CC(O)(P(=O)(O)O)P(=O)(O)O)c1 [10-ZOL, Decyl-zoledronate]
FICI ([1]; 5FC:10-ZOL): 2 | FICI ([1]; FLC:10-ZOL): 0.28 | FICI ([1]; VOR:10-ZOL): 0.61 | bisphosphonate MICc ([1]; with 5FC): 2 | bisphosphonate MICc ([1]; with AMB): 0.25 | bisphosphonate MICc ([1]; with CAS): 0.5 | bisphosphonate MICc ([1]; with FLC): 0.5 | bisphosphonate MICc ([1]; with ITR): 0.125 | bisphosphonate MICc ([1]; with KET): 1 | bisphosphonate MICc ([1]; with VOR): 0.25 | FICI ([2]; 5FC:10-ZOL): 3 | FICI ([2]; CAS:10-ZOL): 1.09 | FICI ([2]; ITR:10-ZOL): 1 | FICI ([2]; VOR:10-ZOL): ≥4 | bisphosphonate MICc ([2]; with 5FC): 1 | bisphosphonate MICc ([2]; with AMB): 2 | bisphosphonate MICc ([2]; with CAS): 0.125 | bisphosphonate MICc ([2]; with FLC): 0.5 | bisphosphonate MICc ([2]; with ITR): 0.5 | bisphosphonate MICc ([2]; with KET): 0.5 | bisphosphonate MICc ([2]; with VOR): 2 | FICI ([3]; 5FC:10-ZOL): ≥4 | FICI ([3]; AMB:10-ZOL): 2 | FICI ([3]; CAS:10-ZOL): ≥4 | FICI ([3]; ITR:10-ZOL): 1.5 | bisphosphonate MICc ([3]; with 5FC): 1 | bisphosphonate MICc ([3]; with AMB): 1 | bisphosphonate MICc ([3]; with CAS): 0.5 | bisphosphonate MICc ([3]; with FLC): 1 | bisphosphonate MICc ([3]; with ITR): 1 | bisphosphonate MICc ([3]; with KET): 0.125 | bisphosphonate MICc ([3]; with VOR): 0.125 | FICI ([4]; 5FC:10-ZOL): 1.5 | FICI ([4]; CAS:10-ZOL): 3 | bisphosphonate MICc ([4]; with 5FC): 1 | bisphosphonate MICc ([4]; with AMB): 0.25 | bisphosphonate MICc ([4]; with CAS): 1 | bisphosphonate MICc ([4]; with FLC): 1 | bisphosphonate MICc ([4]; with ITR): 0.125 | bisphosphonate MICc ([4]; with KET): 0.5 | bisphosphonate MICc ([4]; with VOR): 0.5 | MIC / MEC [5]: 4 µg/mL | FICI ([6]; 5FC:10-ZOL): 1.5 | FICI ([6]; FLC:10-ZOL): 0.5 | bisphosphonate MICc ([6]; with 5FC): 1 | bisphosphonate MICc ([6]; with AMB): 0.25 | bisphosphonate MICc ([6]; with CAS): 0.5 | bisphosphonate MICc ([6]; with FLC): 0.5 | bisphosphonate MICc ([6]; with ITR): 0.125 | bisphosphonate MICc ([6]; with KET): 1 | bisphosphonate MICc ([6]; with VOR): 1 | FICI ([7]; AMB:10-ZOL): 1 | FICI ([7]; CAS:10-ZOL): ≥4 | FICI ([7]; FLC:10-ZOL): 0.52 | bisphosphonate MICc ([7]; with 5FC): 1 | bisphosphonate MICc ([7]; with AMB): 1 | bisphosphonate MICc ([7]; with CAS): 4 | bisphosphonate MICc ([7]; with FLC): 1 | bisphosphonate MICc ([7]; with ITR): 1 | bisphosphonate MICc ([7]; with KET): 0.25 | bisphosphonate MICc ([7]; with VOR): 1 | MIC / MEC [8]: 1 µg/mL | FICI ([9]; FLC:10-ZOL): 1 | FICI ([9]; ITR:10-ZOL): 1.55 | FICI ([9]; KET:10-ZOL): 0.61 | FICI ([9]; VOR:10-ZOL): 1.3 | bisphosphonate MICc ([9]; with 5FC): 0.5 | bisphosphonate MICc ([9]; with AMB): 0.125 | bisphosphonate MICc ([9]; with CAS): 1 | bisphosphonate MICc ([9]; with FLC): 0.5 | bisphosphonate MICc ([9]; with ITR): 0.5 | bisphosphonate MICc ([9]; with KET): 0.125 | bisphosphonate MICc ([9]; with VOR): 0.25 | MIC / MEC [10]: 0.5 µg/mL | FICI ([11]; 5FC:10-ZOL): 1 | FICI ([11]; CAS:10-ZOL): 1 | FICI ([11]; FLC:10-ZOL): 1.02 | FICI ([11]; ITR:10-ZOL): 0.5 | FICI ([11]; VOR:10-ZOL): 1.03 | bisphosphonate MICc ([11]; with 5FC): 0.5 | bisphosphonate MICc ([11]; with AMB): 0.5 | bisphosphonate MICc ([11]; with CAS): 0.5 | bisphosphonate MICc ([11]; with FLC): 1 | bisphosphonate MICc ([11]; with ITR): 0.25 | bisphosphonate MICc ([11]; with KET): 0.5 | bisphosphonate MICc ([11]; with VOR): 1 | FICI ([12]; 5FC:10-ZOL): 3 | FICI ([12]; CAS:10-ZOL): 2 | FICI ([12]; VOR:10-ZOL): 1.16 | bisphosphonate MICc ([12]; with 5FC): 1 | bisphosphonate MICc ([12]; with AMB): 0.25 | bisphosphonate MICc ([12]; with CAS): 1 | bisphosphonate MICc ([12]; with FLC): 0.25 | bisphosphonate MICc ([12]; with ITR): 0.5 | bisphosphonate MICc ([12]; with KET): 1 | bisphosphonate MICc ([12]; with VOR): 0.125
